Reference: ChEMBL document CHEMBL1129887, “Dicarboxylic acid inhibitors of phospholipase A2” (Bioorg Med Chem Lett, 1997)

Tests used:
[1] = target: T1, Phospholipase A2, membrane associated (Homo sapiens, UniProt P14555); test: Compound was measured for the inhibition of human platelet PLA2 (HP-PLA2)
T1 sequence (P14555 whole entry): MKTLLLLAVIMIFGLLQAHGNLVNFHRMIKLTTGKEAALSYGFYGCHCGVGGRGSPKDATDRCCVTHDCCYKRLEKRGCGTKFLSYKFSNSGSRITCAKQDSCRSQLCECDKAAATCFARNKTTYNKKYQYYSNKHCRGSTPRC

Mus musculus [2] = test: (§1) Antiinflammatory activity of compound was measured in the phorbol-ester induced mouse chronic ear edema assay; type: functional
Mus musculus [3] = test: as §1; type: functional; remark: listed apart in the source

IC50 [1] [µM] | SMILES | ED50 (Mus musculus [2]) [ug ear-1 dose-1] | ED50 (Mus musculus [3]) [ug ear-1 dose-1]
8 | C/C(=C\C(=O)O)C(=CCCc1ccc(C23C[C@H]4C[C@@H](C2)C[C@@H](C3)C4)c(O)c1)c1cccc(C(=O)O)c1 | – | –
17 | C/C(=C\C(=O)O)C(=Cc1ccc2cc3c(cc2c1)C(C)(C)CCC3(C)C)c1cccc(C(=O)O)c1 | 9.37 | –
– | C/C(=C\C(=O)O)C(=Cc1ccc2cc(OCc3ccccc3)c(OCc3ccccc3)cc2c1)c1cccc(C(=O)O)c1 | 208 | –
4 | C/C(=C\C(N)=O)C(=Cc1ccc2cc3c(cc2c1)C(C)(C)CCC3(C)C)c1cccc(C(N)=O)c1 | 186 | –
7 | CCCCCCCCCCOc1ccc(C=C(/C(C)=C/C(=O)O)c2cccc(C(=O)O)c2)cc1 | – | –
14 | CCCCCCCCCCOc1ccc2cc(C=C(/C(C)=C/C(=O)O)c3cccc(C(=O)O)c3)ccc2c1 | 31 | –
– | CC1=C(/C=C/C(C)=C/C=C(/C(C)=C/C(=O)O)c2cccc(C(=O)O)c2)C(C)(C)CCC1 | 160 | –
17 | C/C(=C\C(=O)O)C(=Cc1ccc2cc(OCCCc3ccccc3)ccc2c1)c1cccc(C(=O)O)c1 | 30 | 90
2 | C/C(=C\C(=O)O)C(=CCCc1ccc2cc3c(cc2c1)C(C)(C)CCC3(C)C)c1cccc(C(=O)O)c1 | 89 | –
